Test results as given in PMC9569593, “Measurement of Hepatic CYP3A4 and 2D6 Activity Using Radioiodine-Labeled O-Desmethylvenlafaxine” (International Journal of Molecular Sciences, 2022).

How the values were obtained:
CYP3A4 [1] = system: CYP3A4; parameters: method as in PMID 26331791; details: non-labeled ODV ref 11; cited from earlier work
CYP3A4 [2] = test: Inhibition of CYP-mediated metabolism of 125I-ODV by selective inhibitor (ketoconazole); format: in vitro ADME; details: ddY, mouse, pooled mouse liver homogenate (MLH), pH 7.4, probe 125I-ODV; inhibitor 10 µM, compared with NADPH [+]
Protocol: (§1) The pooled MLH was stored at −80 °C.
(§2) For inhibition analysis of specific isozymes of CYP-mediated metabolism of ^125I-ODV, selective inhibitors of CYP isozymes employed in this study included α-naphthoflavone (an inhibitor of CYP1A1 and 1A2), sulfaphenazole (CYP2C9), fluconazole (CYP2C19), paroxetine (CYP2D6), 4-methylpyrazole (CYP2E1), and ketoconazole (CYP3A4). These selective inhibitors were used to elucidate the CYP responsible for the biotransformation of ^125I-ODV. Each inhibitor was dissolved at 10 µM (dimethyl sulfoxide 0.8% v/v final concentration). […] The sample was incubated at 37 °C for 15 min with gentle shaking. The reaction was stopped by adding 100 µL ethanol, and the sample was centrifuged for 5 min at 18,000 g.

CYP2D6 = test: Inhibition of CYP-mediated metabolism of 125I-ODV by selective inhibitor (paroxetine); format: in vitro ADME; details: ddY, mouse, pooled mouse liver homogenate (MLH), pH 7.4, probe 125I-ODV; inhibitor 10 µM, compared with NADPH [+]
Protocol: as §1, §2

For `CN(C)CC(c1ccc(O)cc1)C1(O)CCCCC1` (stereo not drawn) [ODV, O-desmethylvenlafaxine], the “CYP isozyme metabolizing ODV” value (CYP3A4 [1]) is listed as “metabolized only by CYP3A4”.
`CC(=O)N1CCN(c2ccc(OCC3COC(Cn4ccnc4)(c4ccc(Cl)cc4Cl)O3)cc2)CC1` (stereo not drawn) [ketoconazole] showed an inhibition at 15 min, 10 µM (CYP3A4 [2]) of 63%.
`Fc1ccc([C@@H]2CCNC[C@H]2COc2ccc3c(c2)OCO3)cc1` [paroxetine] showed an inhibition at 15 min, 10 µM (CYP2D6) of 79%.
